Experimental data reported in PubChem BioAssay (NCI).
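Briefly, cells in 96-well plates were exposed to five compound concentrations for 48 h, and endpoints were estimated by linear interpolation. TGI is the concentration that stops growth completely.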

Tests used:
Assay in all cases: DTP human tumour cell line panel, 48 h
MDA-MB-231 breast = tested on: MDA-MB-231 breast
COLO 205 colon = tested on: COLO 205 colon
RXF 393 renal = tested on: RXF 393 renal
UO-31 renal = tested on: UO-31 renal
PC-3 prostate = tested on: PC-3 prostate
786-0 renal = tested on: 786-0 renal
SF-539 CNS = tested on: SF-539 CNS
SW-620 colon = tested on: SW-620 colon
SF-295 CNS = tested on: SF-295 CNS
NCI-H522 lung = tested on: NCI-H522 lung
SF-268 CNS = tested on: SF-268 CNS
M14 melanoma = tested on: M14 melanoma
K-562 leukemia = tested on: K-562 leukemia
MALME-3M melanoma = tested on: MALME-3M melanoma
TK-10 renal = tested on: TK-10 renal
NCI-H460 lung = tested on: NCI-H460 lung
SNB-19 CNS = tested on: SNB-19 CNS
HOP-62 NSCLC = tested on: HOP-62 NSCLC
UACC-62 melanoma = tested on: UACC-62 melanoma
CAKI-1 renal = tested on: CAKI-1 renal
HL-60(TB) leukemia = tested on: HL-60(TB) leukemia
OVCAR-8 ovarian = tested on: OVCAR-8 ovarian
SNB-75 CNS = tested on: SNB-75 CNS
U251 CNS = tested on: U251 CNS
OVCAR-3 ovarian = tested on: OVCAR-3 ovarian
MDA-MB-435 = tested on: MDA-MB-435
A498 renal = tested on: A498 renal
SK-OV-3 ovarian = tested on: SK-OV-3 ovarian
HCT-15 colon = tested on: HCT-15 colon
SK-MEL-2 melanoma = tested on: SK-MEL-2 melanoma
MOLT-4 leukemia = tested on: MOLT-4 leukemia
OVCAR-4 ovarian = tested on: OVCAR-4 ovarian
CCRF-CEM leukemia = tested on: CCRF-CEM leukemia
LOX IMVI melanoma = tested on: LOX IMVI melanoma
T-47D breast = tested on: T-47D breast
RPMI-8226 leukemia = tested on: RPMI-8226 leukemia
UACC-257 melanoma = tested on: UACC-257 melanoma
SN12C renal = tested on: SN12C renal
SK-MEL-5 melanoma = tested on: SK-MEL-5 melanoma
SR leukemia = tested on: SR leukemia
HCC-2998 colon = tested on: HCC-2998 colon
IGROV1 ovarian = tested on: IGROV1 ovarian
SK-MEL-28 melanoma = tested on: SK-MEL-28 melanoma
DU-145 prostate = tested on: DU-145 prostate
HS 578T breast = tested on: HS 578T breast
MDA-N = tested on: MDA-N
OVCAR-5 ovarian = tested on: OVCAR-5 ovarian
HCT-116 colon = tested on: HCT-116 colon
MCF7 breast = tested on: MCF7 breast
KM12 colon = tested on: KM12 colon
NCI-H23 lung = tested on: NCI-H23 lung
HT29 colon = tested on: HT29 colon
NCI-H226 lung = tested on: NCI-H226 lung
EKVX NSCLC = tested on: EKVX NSCLC
A549 NSCLC = tested on: A549 NSCLC
NCI/ADR-RES ovarian = tested on: NCI/ADR-RES ovarian
ACHN renal = tested on: ACHN renal
HOP-92 NSCLC = tested on: HOP-92 NSCLC

Measured: TGI

N#CC(C#N)C1CN2CCC1CC2 (stereo not drawn)
not listed: HOP-92 NSCLC
> 100 µM: all other assays above

O=C1[C@H](O)[C@@H]2CCC[C@@]23CCCN13
not listed: MDA-MB-231 breast | PC-3 prostate | MALME-3M melanoma | SNB-19 CNS | SK-MEL-2 melanoma | OVCAR-4 ovarian | SK-MEL-28 melanoma
> 100 µM: all other assays above
